Values of other authors as cited in patent publication EP0077028B1, “Renin inhibitory peptides” (Merck & Co., Inc., priority 1981, dated 1987).

Test system: hog renin
Conditions: after the injection of hog renin into nephrectomized rats

Substance: pepstatin
- blood pressure in vivo: reduce blood pressure
